Molecules are shown by their SMILES.

Holding throughout (assay type): cell-based
The subject of experiment [1] is Sensitive Cell Line (HCT116, RKO, SW620, LS147T). In words: Average oxaliplatin AUC over sensitive colorectal cancer cell lines. On the procedure:
(§1) Four hours after the medium change, the cells were treated with oxaliplatin, 5-FU, Irinotecan, and folinic acid. Five days after drug treatment, intracellular ATP expression was determined using the ATPlite assay kit (PerkinElmer), and the data were expressed in terms of cell viability, IC50, and AUC.
(§2) As the standard for confirming that cells are sensitive to the drug, the response of the cells to the drug was assumed to be 100%, and the luminescence value of surviving cells after drug treatment was analyzed and compared with the quantified drug response value.
(§3) Based on the assumption that the factor that increases the resistance of the organoids to oxaliplatin is an activator or inhibitor that changes the phenotype, the organoids prepared by excluding some or all of activators and inhibitors as shown in Table 4 below were treated with oxaliplatin.
(§4) In order to confirm reduced resistance to oxaliplatin, ECT116, RKO, SW620, and LS147T cell lines, which are highly sensitive to oxaliplatin, and HT29, HTC15, CoLo205, and Lovo cell lines, which are low sensitive to oxaliplatin, were used.
(§5) When the above results were combined with the results shown by cell lines with high sensitivity to oxaliplatin and cell lines with low sensitivity to oxaliplatin, the result data shown in FIGS. 23 and 24 and Tables 5 to 7 below were obtained.

For experiment [2], the system named is Resistant Cell Line (HT29, HTC15, CoLo205, Lovo). In words: Average oxaliplatin AUC over resistant colorectal cancer cell lines. The protocol: as §1, §2, §3, §4, §5
In the next experiment the test system is CoLo205 cells. In words: ATPlite cell viability after oxaliplatin, CoLo205 cells in organoid culture media. The following applies: FIG. 19. On the procedure: Advanced DMEM/F12+++ (hereinafter referred to as “Ad/DF+++”) was used to produce colorectal cancer organoids. Ad/DF+++ was refrigerated at 4° C. until use, and was used in a cold state during cell washing. Ad/DF+++ medium containing the reagents shown in Table 1 below along with Ad/DF 1× (Gibco) was prepared.
After preparing the Ad/DF+++ medium containing the above reagents, an appropriate amount of Matrigel (Corning #356231) was added so that the ratio between Matrigel and cells suspended in the Ad/DF+++ medium was 7:3. Then, the cells were plated on low attachment well plates at an appropriate density. The density and the type and number of well plates were determined according to the characteristics of each cell type. […]
If the organoids were expanded as needed for the experiment, the medium was carefully removed, taking care not to touch the Matrigel. […] After suspending the pellet in Ad/DF+++, the cells were counted and diluted with medium according to the required number of cells. […]
Four hours after the medium change, the cells were treated with oxaliplatin, 5-FU, Irinotecan, and folinic acid. Five days after drug treatment, intracellular ATP expression was determined using the ATPlite assay kit (PerkinElmer), and the data were expressed in terms of cell viability, IC50, and AUC. […]
For orientation: In ATP-based viability assays light output follows the ATP content of the culture.

As to `O=C1[O][Pt]2([NH][C@@H]3CCCC[C@H]3[NH]2)[O]C1=O` [oxaliplatin], the EX1_AUC came out at 396.08 in experiment [1] (average over sensitive cell lines, Ex1 medium (inhibitors and activators)); 420.02 in experiment [2] (average over resistant cell lines, Ex1 medium). The EX2_AUC came out at 347.78 in experiment [1] (average over sensitive cell lines, Ex2 medium (no inhibitors, no activators)) and 420.86 in experiment [2] (average over resistant cell lines, Ex2 medium). Also, the normal_AUC in experiment [1] (average over sensitive cell lines, normal cell-line culture) was 274.55; in experiment [2] (average over resistant cell lines, normal cell-line culture) it was 391.80. In addition, the “sensitivity to oxaliplatin, Ex2 compared with Ex1” value was “higher in Ex2 without both inhibitors and activators than in Ex1” in experiment [1] (cell lines with high sensitivity, FIG. 23); “no difference in sensitivity to oxaliplatin between Ex1 and Ex2” in experiment [2] (cell lines with low sensitivity, FIG. 24). The “EX1 − EX2 (AUC difference)” value in experiment [1] (sensitive cell lines) is 48.30; in experiment [2] (resistant cell lines), −0.85. The “AUC values of Ex2 to Ex4 compared with Ex1” value with CoLo205 cells is “higher than that of Ex1”.

The values above are taken from US20250102494A1, “COMPOSITION FOR PREDICTING OXALIPLATIN DRUG EFFICACY, AND USE THEREOF” (SAMSUNG LIFE PUBLIC WELFARE FOUNDATION, priority 2022, published 2025).
